A value given as a limit tells only on which side of the number the result lay.

This assay concerns the target Tie-2 (Homo sapiens, UniProt Q02763). Nature of the assay: Tie-2 tyrosine kinase inhibition (ATP consumption by luciferase/luciferin chemiluminescence or 33P-ATP incorporation into pEY substrate). Format: biochemical. Conditions: human enzyme Tie-2; inhibition given as class symbol. The procedure:
Tyrosine kinase activity is determined by 1) measurement of kinase-dependent ATP consumption by in the presence of a generic substrate such as polyglutamine, tyrosin (pEY), by luciferase/luciferin-mediated chemiluminescence or; 2) incorporation of radioactive phosphate derived from ^33P-ATP into a generic substrate which has been adsorbed onto the well surface of polystyrene microtiter plates. Phosphorylated substrate products are quantified by scintillation spectrometry.
Inhibition is indicated as IC50 with following key: A=IC50 less than 50 nM, B=IC50 greater than 50 nM, but less than or equal to 1000 nM, C=IC50 greater than 1000 nM, but less than 10,000 nM, and D=IC50 10,000 nM or greater. The abbreviation for human enzyme, Tie-2, is defined as tyrosine kinase with immunoglobulin and EGF repeats.

Chain of Tie-2 (Q02763 23-1124): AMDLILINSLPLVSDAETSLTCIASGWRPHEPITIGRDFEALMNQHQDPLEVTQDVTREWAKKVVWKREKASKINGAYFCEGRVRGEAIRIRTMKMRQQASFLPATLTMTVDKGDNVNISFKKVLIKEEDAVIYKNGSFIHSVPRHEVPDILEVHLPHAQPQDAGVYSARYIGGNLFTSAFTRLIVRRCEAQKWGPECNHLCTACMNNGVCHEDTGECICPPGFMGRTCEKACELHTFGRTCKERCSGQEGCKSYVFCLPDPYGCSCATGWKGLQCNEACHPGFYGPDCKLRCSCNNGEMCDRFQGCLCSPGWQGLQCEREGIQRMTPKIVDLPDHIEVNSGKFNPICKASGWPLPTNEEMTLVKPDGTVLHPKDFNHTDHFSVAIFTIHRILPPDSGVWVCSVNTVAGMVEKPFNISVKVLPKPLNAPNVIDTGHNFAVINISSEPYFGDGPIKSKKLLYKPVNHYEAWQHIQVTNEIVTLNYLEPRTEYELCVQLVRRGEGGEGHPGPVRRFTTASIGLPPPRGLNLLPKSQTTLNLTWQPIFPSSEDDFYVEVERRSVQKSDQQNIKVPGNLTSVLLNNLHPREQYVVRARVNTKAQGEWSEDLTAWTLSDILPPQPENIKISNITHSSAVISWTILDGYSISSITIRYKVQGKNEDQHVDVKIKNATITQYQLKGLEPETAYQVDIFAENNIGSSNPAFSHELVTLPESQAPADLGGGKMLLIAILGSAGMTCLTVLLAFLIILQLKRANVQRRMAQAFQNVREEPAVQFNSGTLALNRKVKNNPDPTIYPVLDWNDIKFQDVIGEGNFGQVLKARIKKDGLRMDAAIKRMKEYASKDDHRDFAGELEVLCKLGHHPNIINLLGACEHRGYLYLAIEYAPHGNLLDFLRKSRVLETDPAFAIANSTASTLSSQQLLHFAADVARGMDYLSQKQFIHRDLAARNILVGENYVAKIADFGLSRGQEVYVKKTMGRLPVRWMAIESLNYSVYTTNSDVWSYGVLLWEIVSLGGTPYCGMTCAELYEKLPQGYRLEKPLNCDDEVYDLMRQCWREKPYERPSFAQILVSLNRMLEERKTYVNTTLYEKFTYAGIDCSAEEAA

For `c1ccc2c(NC3CCCCC3)nc(-c3ccncc3)nc2c1` [Compound 1, N-cyclohexyl-2-pyridin-4-ylquinazolin-4-amine], the concentration for half-maximal inhibition (IC50) is 1 to 10 µM.
Next, `c1ccc2c(NCCN3CCCC3)nc(-c3ccncc3)nc2c1` [Compound 2, 2-pyridin-4-yl-N-(2-pyrrolidin-1-ylethyl)quinazolin-4-amine]: no less than 10 µM; `c1ccc2c(NC3CCCC3)nc(-c3ccncc3)nc2c1` [Compound 3, N-cyclopentyl-2-pyridin-4-ylquinazolin-4-amine]: 1 to 10 µM; `c1ccc2c(NCC3CCCCC3)nc(-c3ccncc3)nc2c1` [Compound 4, N-(cyclohexylmethyl)-2-pyridin-4-ylquinazolin-4-amine]: 1 to 10 µM.
In the case of `OCCNc1nc(-c2ccncc2)nc2ccccc12` [Compound 5, 2-[(2-pyridin-4-ylquinazolin-4-yl)amino]ethanol], the IC50 was no less than 10 µM.
As to `OCCCNc1nc(-c2ccncc2)nc2ccccc12` [Compound 6, 3-[(2-pyridin-4-ylquinazolin-4-yl)amino]propan-1-ol], the IC50 was no less than 10 µM.
Consider `Fc1ccc(CNc2nc(-c3ccncc3)nc3ccccc23)cc1` [Compound 7, N-[(4-fluorophenyl)methyl]-2-pyridin-4-ylquinazolin-4-amine], for which the concentration for half-maximal inhibition (IC50) lay within 1 to 10 µM.
As to `CN(C)CCNc1nc(-c2ccncc2)nc2ccccc12` [Compound 8, N,N-dimethyl-N′-(2-pyridin-4-ylquinazolin-4-yl)ethane-1,2-diamine], the IC50 was no less than 10 µM.
To `c1ccc2c(c1)CCC2Nc1nc(-c2ccncc2)nc2ccccc12` (stereo not shown) [Compound 9, N-(2,3-dihydro-1H-inden-1-yl)-2-pyridin-4-ylquinazolin-4-amine] belongs 0.05 to 1 µM; to `c1ccc2c(NCCN3CCOCC3)nc(-c3ccncc3)nc2c1` [Compound 10, N-(2-morpholin-4-ylethyl)-2-pyridin-4-ylquinazolin-4-amine], no less than 10 µM; to `Oc1ccc(N2CCN(c3nc(-c4ccncc4)nc4ccccc34)CC2)cc1` [Compound 11, 4-[4-(2-pyridin-4-ylquinazolin-4-yl)piperazin-1-yl]phenol], no less than 10 µM.
Next, `c1ccc2c(c1)CC[C@@H](Nc1nc(-c3ccncc3)nc3ccccc13)C2` [Compound 12, 2-pyridin-4-yl-N-[(2R)-1,2,3,4-tetrahydronaphthalen-2-yl]quinazolin-4-amine]: 0.05 to 1 µM; `c1ccc2c(N3CCNCC3)nc(-c3ccncc3)nc2c1` [Compound 13, 4-piperazin-1-yl-2-pyridin-4-ylquinazoline]: no less than 10 µM; `CC(C)(C)OC(=O)N1CCN(c2nc(-c3ccncc3)nc3ccccc23)CC1` [Compound 14, 1,1-dimethylethyl 4-(2-pyridin-4-ylquinazolin-4-yl)piperazine-1-carboxylate]: no less than 10 µM.
For `c1ccc2c(c1)CC[C@H](Nc1nc(-c3ccncc3)nc3ccccc13)C2` [Compound 15, 2-pyridin-4-yl-N-[(2S)-1,2,3,4-tetrahydronaphthalen-2-yl]quinazolin-4-amine], the IC50 was in the range of 1 to 10 µM.
As to `c1ccc2c(c1)CC[C@H]2Cc1nc(-c2ccncc2)nc2ccccc12` [Compound 16, 4-[(1S)-2,3-dihydro-1H-inden-1-ylmethyl]-2-pyridin-4-ylquinazoline], the IC50 was in the range of 1 to 10 µM.
To `O[C@H]1Cc2ccccc2[C@H]1Nc1nc(-c2ccncc2)nc2ccccc12` [Compound 17, (1R,2S)-1-[(2-pyridin-4-ylquinazolin-4-yl)amino]-2,3-dihydro-1H-inden-2-ol] belongs no less than 10 µM.
To `O[C@@H]1Cc2ccccc2[C@@H]1Nc1nc(-c2ccncc2)nc2ccccc12` [Compound 18, (1S,2R)-1-[(2-pyridin-4-ylquinazolin-4-yl)amino]-2,3-dihydro-1H-inden-2-ol] belongs less than 0.05 µM; to `CC(C)(C)OC(=O)N1CCC(Nc2nc(-c3ccncc3)nc3ccccc23)CC1` [Compound 19, 1,1-dimethylethyl 4-[(2-pyridin-4-ylquinazolin-4-yl)amino]piperidine-1-carboxylate], 1 to 10 µM.
`COc1cc(OC)c(CNc2nc(-c3ccncc3)nc3ccccc23)c(OC)c1` [Compound 20, 2-pyridin-4-yl-N-{[2,4,6-tris(methyloxy)phenyl]methyl}quinazolin-4-amine] had an IC50 of no less than 10 µM.
Molecule `c1ccc2c(NC3CCNCC3)nc(-c3ccncc3)nc2c1` [Compound 21, N-piperidin-4-yl-2-pyridin-4-ylquinazolin-4-amine] had an IC50 of no less than 10 µM.
Next, `c1ccc(CO[C@H]2CCC[C@@H]2Nc2nc(-c3ccncc3)nc3ccccc23)cc1` [Compound 22, N-{(1S,2S)-2-[(phenylmethyl)oxy]cyclopentyl}-2-pyridin-4-ylquinazolin-4-amine]: no less than 10 µM; `c1ccc(Nc2ccc(Nc3nc(-c4ccncc4)nc4ccccc34)cc2)cc1` [Compound 23, N-phenyl-N′-(2-pyridin-4-ylquinazolin-4-yl)benzene-1,4-diamine]: no less than 10 µM; `Oc1cc2ccccc2cc1Nc1nc(-c2ccncc2)nc2ccccc12` [Compound 24, 3-[(2-pyridin-4-ylquinazolin-4-yl)amino]naphthalen-2-ol]: 1 to 10 µM.
In the case of `CC(C)Oc1ccc(Nc2nc(-c3ccncc3)nc3ccccc23)cc1` [Compound 25, N-{4-[(1-methylethyl)oxy]phenyl}-2-pyridin-4-ylquinazolin-4-amine], the IC50 lay in the range of 1 to 10 µM.
Molecule `O[C@@H]1Cc2ccccc2[C@@H]1Nc1nc(-c2ccccc2)nc2ccccc12` [Compound 26, (1S,2R)-1-[(2-phenylquinazolin-4-yl)amino]-2,3-dihydro-1H-inden-2-ol] yielded an IC50 of no less than 10 µM.
Next, `O[C@H]1Cc2ccccc2[C@H]1Nc1nc(-c2ccccc2)nc2ccccc12` [Compound 27, (1R,2S)-1-[(2-phenylquinazolin-4-yl)amino]-2,3-dihydro-1H-inden-2-ol]: no less than 10 µM; `O[C@@H]1CCC[C@H]1Nc1nc(-c2ccccc2)nc2ccccc12` [Compound 28, (1R,2R)-2-[(2-phenylquinazolin-4-yl)amino]cyclopentanol]: no less than 10 µM; `O[C@@H]1CCCC[C@H]1Nc1nc(-c2ccccc2)nc2ccccc12` [Compound 29, (1R,2R)-2-[(2-phenylquinazolin-4-yl)amino]cyclohexanol]: no less than 10 µM.
Turning to `OC[C@H]1C[C@@H](Nc2nc(-c3ccccc3)nc3ccccc23)[C@H](O)[C@@H]1O` [Compound 30, (1S,2R,3R,5R)-3-(hydroxymethyl)-5-[(2-phenylquinazolin-4-yl)amino]cyclopentane-1,2-diol], the concentration for half-maximal inhibition (IC50) is no less than 10 µM.
Next, `O[C@@H]1Cc2ccccc2[C@@H]1Nc1nc(-c2ccncc2)nc2ccc(Cl)cc12` [Compound 31, (1S,2R)-1-[(6-chloro-2-pyridin-4-ylquinazolin-4-yl)amino]-2,3-dihydro-1H-inden-2-ol]: less than 0.05 µM.
Next, `c1ccc2c(NCCN3CCNCC3)nc(-c3ccncc3)nc2c1` [Compound 32, N-(2-piperazin-1-ylethyl)-2-pyridin-4-ylquinazolin-4-amine]: no less than 10 µM; `O[C@@H]1Cc2ccccc2[C@@H]1Nc1nc(-c2cccnc2)nc2ccccc12` [Compound 33, (1S,2R)-1-[(2-pyridin-3-ylquinazolin-4-yl)amino]-2,3-dihydro-1H-inden-2-ol]: 1 to 10 µM.
Next, `O[C@H]1Cc2ccccc2[C@H]1Nc1nc(-c2cccnc2)nc2ccccc12` [Compound 34, (1R,2S)-1-[(2-pyridin-3-ylquinazolin-4-yl)amino]-2,3-dihydro-1H-inden-2-ol]: no less than 10 µM; `O[C@@H]1CCC[C@H]1Nc1nc(-c2cccnc2)nc2ccccc12` [Compound 35, (1R,2R)-2-[(2-pyridin-3-ylquinazolin-4-yl)amino]cyclopentanol]: no less than 10 µM.
Consider `O[C@@H]1CCCC[C@H]1Nc1nc(-c2cccnc2)nc2ccccc12` [Compound 36, (1R,2R)-2-[(2-pyridin-3-ylquinazolin-4-yl)amino]cyclohexanol], for which the half-inhibitory concentration (IC50) is no less than 10 µM.
Molecule `O[C@@H]1Cc2ccccc2[C@@H]1Nc1nc(-c2ccccn2)nc2ccccc12` [Compound 37, (1S,2R)-1-[(2-pyridin-2-ylquinazolin-4-yl)amino]-2,3-dihydro-1H-inden-2-ol] yielded a concentration for half-maximal inhibition (IC50) of no less than 10 µM.
To `O[C@H]1Cc2ccccc2[C@H]1Nc1nc(-c2ccccn2)nc2ccccc12` [Compound 38, (1R,2S)-1-[(2-pyridin-2-ylquinazolin-4-yl)amino]-2,3-dihydro-1H-inden-2-ol] belongs no less than 10 µM.
In the case of `OC[C@@H](O)CNc1nc(-c2ccncc2)nc2ccccc12` [Compound 39, (2S)-3-[(2-pyridin-4-ylquinazolin-4-yl)amino]propane-1,2-diol], the half-inhibitory concentration (IC50) was no less than 10 µM.
To `OC[C@@H]1Cc2ccccc2N1c1nc(-c2ccncc2)nc2ccccc12` [Compound 40, [(2S)-1-(2-pyridin-4-ylquinazolin-4-yl)-2,3-dihydro-1H-indol-2-yl]methanol] belongs no less than 10 µM.
The molecule `C[C@H](CO)Nc1nc(-c2ccncc2)nc2ccccc12` [Compound 41, (2R)-2-[(2-pyridin-4-ylquinazolin-4-yl)amino]propan-1-ol] showed an IC50 of no less than 10 µM.
As to `C[C@H](O)CNc1nc(-c2ccncc2)nc2ccccc12` [Compound 42, (2S)-1-[(2-pyridin-4-ylquinazolin-4-yl)amino]propan-2-ol], the IC50 was no less than 10 µM.
To `CCc1cc(-c2nc(N[C@H]3c4ccccc4C[C@H]3O)c3ccccc3n2)ccn1` [Compound 43, (1S,2R)-1-{[2-(2-ethylpyridin-4-yl)quinazolin-4-yl]amino}-2,3-dihydro-1H-inden-2-ol] belongs no less than 10 µM.

Usually IC50 stands for the concentration at which inhibition is half-maximal. A lower IC50 goes with inhibition by little substance.

(Values after patent publication US7763627B2, “Tie-2 modulators and methods of use” (Exelixis, Inc., priority 2003, dated 2010).)
